According to patent publication US8735364B2, “Antisense modulation of apolipoprotein B expression” (Genzyme Corporation, priority 2001, dated 2014):
Oligonucleotides are written 5' to 3', each unit as a sugar letter and its base; * is a phosphorothioate linkage, no mark a phosphodiester; rarer units and linkages stand in square brackets, end groups in braces. Plain capitals give the bases only. e = 2'-O-(2-methoxyethyl) (MOE); [5mC] = 5-methylcytosine; d = 2'-deoxy (DNA)

Tested on: mouse apolipoprotein B mRNA
Assay: Inhibition of mouse apolipoprotein B mRNA levels in primary hepatocytes, quantitative real-time PCR
Assay type: cell-based
Set-up: %INHIB of mouse apolipoprotein B mRNA levels: concentration or dose not given beside the values
Conditions: for %INHIB of mouse apolipoprotein B mRNA levels: averages from two experiments
Experimental: Primary mouse hepatocytes were prepared from CD-1 mice purchased from Charles River Labs (Wilmington, Mass.) and were routinely cultured in Hepatoyte Attachment Media (Gibco) supplemented with 10% Fetal Bovine Serum (Gibco/Life Technologies, Gaithersburg, Md.), 250 nM dexamethasone (Sigma), and 10 nM bovine insulin (Sigma). Cells were seeded into 96-well plates (Falcon-Primaria #3872) at a density of 10000 cells/well for use in RT-PCR analysis.
When cells reached 80% confluency, they were treated with oligonucleotide. For cells grown in 96-well plates, wells were washed once with 200 μL OPTI-MEM™-1 reduced-serum medium (Gibco BRL) and then treated with 130 μL of OPTI-MEM™-1 containing 3.75 μg/mL LIPOFECTIN™ (Gibco BRL) and the desired concentration of oligonucleotide. After 4-7 hours of treatment, the medium was replaced with fresh medium. Cells were harvested 16-24 hours after oligonucleotide treatment.
Quantitation of apolipoprotein B mRNA levels was determined by real-time quantitative PCR using the ABI PRISM™ 7700 Sequence Detection System (PE-Applied Biosystems, Foster City, Calif.) according to manufacturer's instructions. This is a closed-tube, non-gel-based, fluorescence detection system which allows high-throughput quantitation of polymerase chain reaction (PCR) products in real-time. As opposed to standard PCR, in which amplification products are quantitated after the PCR is completed, products in real-time quantitative PCR are quantitated as they accumulate. This is accomplished by including in the PCR reaction an oligonucleotide probe that anneals specifically between the forward and reverse PCR primers, and contains two fluorescent dyes. A reporter dye (e.g., JOE, FAM, or VIC, obtained from either Operon Technologies Inc., Alameda, Calif. or PE-Applied Biosystems, Foster City, Calif.) is attached to the 5′ end of the probe and a quencher dye (e.g., TAMRA, obtained from either Operon Technologies Inc., Alameda, Calif. or PE-Applied Biosystems, Foster City, Calif.) is attached to the 3′ end of the probe. When the probe and dyes are intact, reporter dye emission is quenched by the proximity of the 3′ quencher dye. During amplification, annealing of the probe to the target sequence creates a substrate that can be cleaved by the 5′-exonuclease activity of Taq polymerase. […] With each cycle, additional reporter dye molecules are cleaved from their respective probes, and the fluorescence intensity is monitored at regular intervals by laser optics built into the ABI PRISM™ 7700 Sequence Detection System. In each assay, a series of parallel reactions containing serial dilutions of mRNA from untreated control samples generates a standard curve that is used to quantitate the percent inhibition after antisense oligonucleotide treatment of test samples.
PCR reagents were obtained from PE-Applied Biosystems, Foster City, Calif. RT-PCR reactions were carried out by adding 25 μL PCR cocktail (1× TAQMAN™ buffer A, 5.5 mM MgCl2, 300 μM each of DATP, dCTP and dGTP, 600 μM of dUTP, 100 nM each of forward primer, reverse primer, and probe, 20 Units RNAse inhibitor, 1.25 Units AMPLITAQ GOLD™, and 12.5 Units MuLV reverse transcriptase) to 96 well plates containing 25 μL total RNA solution. The RT reaction was carried out by incubation for 30 minutes at 48° C. Following a 10 minute incubation at 95° C. to activate the AMPLITAQ GOLD™, 40 cycles of a two-step PCR protocol were carried out: 95° C. for 15 seconds (denaturation) followed by 60° C. for 1.5 minutes (annealing/extension).
Gene target quantities obtained by real time RT-PCR are normalized using either the expression level of GAPDH, a gene whose expression is constant, or by quantifying total RNA using RiboGreen™ (Molecular Probes, Inc. Eugene, Oreg.). GAPDH expression is quantified by real time RT-PCR, by being run simultaneously with the target, multiplexing, or separately. Total RNA is quantified using RiboGreen™ RNA quantification reagent from Molecular Probes. […]

| Substance | %INHIB of mouse apolipoprotein B mRNA levels | further results |
| --- | --- | --- |
| 147489 (antisense e[5mC]*e[5mC]*eT*eA*eT*dA*d[5mC]*dT*dG*dG*d[5mC]*dT*dT*d[5mC]*dT*eA*eT*eG*eT*eT) [compound 147489] | 5% |  |
| 147765 (antisense eA*eG*eG*e[5mC]*e[5mC]*d[5mC]*dA*dG*dT*dT*d[5mC]*d[5mC]*dA*dT*dG*eA*e[5mC]*e[5mC]*e[5mC]*eT) [compound 147765] | 59% |  |
| 147485 (antisense eA*eT*eT*eT*eG*dG*dG*dA*d[5mC]*dG*dA*dA*dT*dG*dT*eA*eT*eG*e[5mC]*e[5mC]) [compound 147485] | 64% |  |
| 147495 (antisense eG*eT*eT*eA*eG*dG*dA*d[5mC]*d[5mC]*dA*dG*dG*dG*dA*dT*eT*eG*eT*eG*eA) [compound 147495] | 0% |  |
| 147498 (antisense eT*eG*eG*eG*e[5mC]*dA*dA*d[5mC]*dG*dA*dT*dA*dT*d[5mC]*dT*eG*eA*eT*eT*eG) [compound 147498] | 0% |  |
| 147763 (antisense eT*eG*e[5mC]*eG*eA*d[5mC]*dT*dG*dT*dG*dT*d[5mC]*dT*dG*dA*eT*eT*eT*e[5mC]*e[5mC]) [compound 147763] | 34% |  |
| 147774 (antisense eT*eG*eG*e[5mC]*eT*dA*dG*dT*dT*dT*d[5mC]*dA*dA*dT*d[5mC]*e[5mC]*e[5mC]*e[5mC]*eT*eT) [compound 147774] | 84% |  |
| 147496 (antisense eA*e[5mC]*e[5mC]*eA*eT*dG*dG*dA*dA*dA*dA*d[5mC]*dT*dG*dG*e[5mC]*eA*eA*e[5mC]*eT) [compound 147496] | 19% |  |
| 147776 (antisense eG*e[5mC]*eT*eT*eG*dA*dA*dG*dT*dT*d[5mC]*dA*dT*dT*dG*eA*eG*eA*eA*eT) [compound 147776] | 92% | Percent Inhibition of mouse apolipoprotein B mRNA levels (50 nM): 0%; Percent Inhibition of mouse apolipoprotein B mRNA levels (150 nM): 17%; Percent Inhibition of mouse apolipoprotein B mRNA levels (300 nM): 44% |
| 147484 (antisense eT*eT*e[5mC]*eA*eT*d[5mC]*d[5mC]*dG*dA*dG*dA*dA*dG*dT*dT*eG*eG*eG*eA*e[5mC]) [compound 147484] | 49% |  |
| 147761 (antisense eG*eT*eT*e[5mC]*eA*dT*dG*dG*dA*dT*dT*d[5mC]*d[5mC]*dT*dT*e[5mC]*eA*eG*eG*eA) [compound 147761] | 45% |  |
| 147502 (antisense eA*eT*eG*eG*eG*dA*dG*d[5mC]*dA*dT*dG*dG*dA*dG*dG*eT*eT*eG*eG*e[5mC]) [compound 147502] | 16% |  |
| 147494 (antisense eA*e[5mC]*eA*eA*e[5mC]*dT*dG*dG*dG*dA*dT*dA*dG*dT*dG*eT*eA*eG*e[5mC]*e[5mC]) [compound 147494] | 84% |  |
| 147483 (antisense eA*eT*eG*eT*e[5mC]*dA*dA*dT*dG*d[5mC]*d[5mC]*dA*d[5mC]*dA*dT*eG*eT*e[5mC]*e[5mC]*eA) [compound 147483] |  | Percent Inhibition of mouse apolipoprotein B mRNA levels (50 nM): 56%; Percent Inhibition of mouse apolipoprotein B mRNA levels (150 nM): 88%; Percent Inhibition of mouse apolipoprotein B mRNA levels (300 nM): 89% |
| 147766 (antisense eG*eG*eA*eG*e[5mC]*d[5mC]*d[5mC]*dA*d[5mC]*dG*dT*dG*d[5mC]*dT*dG*eA*eG*eA*eT*eT) [compound 147766] | 59% |  |
| 147505 (antisense eG*eG*eA*eA*eG*dT*dG*dA*dG*dA*d[5mC]*dT*dT*dT*d[5mC]*eT*eA*eA*eG*e[5mC]) [compound 147505] | 76% |  |
| 147507 (antisense eA*eT*eT*eG*eG*d[5mC]*dT*dT*d[5mC]*dA*dT*dT*dG*dG*d[5mC]*eA*eA*e[5mC]*eA*e[5mC]) [compound 147507] | 81% |  |

| Substance | %INHIB of mouse apolipoprotein B mRNA levels | further results |
| --- | --- | --- |
| 147770 (antisense eG*eT*eG*eT*eT*dG*dA*dA*dT*d[5mC]*d[5mC]*d[5mC]*dT*dT*dG*eA*eA*eA*eT*e[5mC]) [compound 147770] | 67% |  |
| 147480 (antisense eT*e[5mC]*eT*e[5mC]*eA*d[5mC]*d[5mC]*d[5mC]*dT*d[5mC]*dA*dT*dG*d[5mC]*dT*e[5mC]*e[5mC]*eA*eT*eT) [compound 147480] | 54% |  |
| 147476 (antisense eG*eA*eG*eG*eA*dG*dA*dT*dT*dG*dG*dA*dT*d[5mC]*dT*eT*eA*eA*eG*eG) [compound 147476] | 13% |  |
| 147771 (antisense eG*eG*eT*eA*eA*dA*dG*dT*dT*dG*d[5mC]*d[5mC]*d[5mC]*dA*dT*eG*eG*e[5mC]*eT*eG) [compound 147771] | 68% |  |
| 147769 (antisense e[5mC]*eA*eT*eG*e[5mC]*d[5mC]*dT*dG*dG*dA*dA*dG*d[5mC]*d[5mC]*dA*eG*eT*eG*eT*e[5mC]) [compound 147769] | 89% | Percent Inhibition of mouse apolipoprotein B mRNA levels (50 nM): 3%; Percent Inhibition of mouse apolipoprotein B mRNA levels (150 nM): 14%; Percent Inhibition of mouse apolipoprotein B mRNA levels (300 nM): 28% |
| 147499 (antisense e[5mC]*eT*eG*e[5mC]*eA*dG*dG*dG*d[5mC]*dG*dT*d[5mC]*dA*dG*dT*eG*eA*e[5mC]*eA*eA) [compound 147499] | 29% |  |
| 147503 (antisense eA*eA*eT*eG*eG*dA*dT*dG*dA*dT*dG*dA*dA*dA*d[5mC]*eA*eG*eT*eG*eG) [compound 147503] | 26% |  |
| 147475 (antisense eA*eT*eT*eG*eT*dA*dT*dG*dT*dG*dA*dG*dA*dG*dG*eT*eG*eA*eG*eG) [compound 147475] | 79% |  |
| 147767 (antisense e[5mC]*eG*eT*e[5mC]*e[5mC]*dT*dT*dG*dA*dG*d[5mC]*dA*dG*dT*dG*e[5mC]*e[5mC]*e[5mC]*eG*eA) [compound 147767] | 5% |  |
| 147759 (antisense eA*eG*eG*eT*eG*dA*dG*dG*dA*dA*dG*dT*dT*dG*dG*eA*eA*eT*eT*e[5mC]) [compound 147759] | 19% |  |
| 147481 (antisense eT*eG*eA*e[5mC]*eT*dG*dT*d[5mC]*dA*dA*dG*dG*dG*dT*dG*eA*eG*e[5mC]*eT*eG) [compound 147481] | 24% |  |
| 147762 (antisense eA*eT*eG*e[5mC]*eT*d[5mC]*d[5mC]*dA*dT*dT*d[5mC]*dT*d[5mC]*dA*d[5mC]*eA*eT*eG*e[5mC]*eT) [compound 147762] | 46% |  |
| 147768 (antisense e[5mC]*e[5mC]*e[5mC]*eA*eT*dA*dT*dG*dG*dA*dG*dA*dA*dA*dT*e[5mC]*e[5mC]*eT*eT*e[5mC]) [compound 147768] | 24% |  |
| 147772 (antisense eG*eT*eT*eA*eT*dA*dA*dA*dG*dT*d[5mC]*d[5mC]*dA*dG*d[5mC]*eA*eT*eT*eG*eG) [compound 147772] | 78% |  |
| 147478 (antisense eT*e[5mC]*e[5mC]*eA*eG*dG*dA*dA*dT*dT*dG*dA*dG*d[5mC]*dT*eT*eG*eT*eG*e[5mC]) [compound 147478] | 78% |  |
| 147487 (antisense eT*eT*e[5mC]*e[5mC]*e[5mC]*dA*dG*dT*d[5mC]*dA*dG*d[5mC]*dT*dT*dT*eA*eG*eT*eG*eG) [compound 147487] | 73% |  |
